Test results reported in US7989447B2, “1,5 and 3,6-substituted indole compounds having NOS inhibitory activity” (NeurAxon, Inc., priority 2006, dated 2011).
Like-named read-outs stand apart in the source and are kept apart here.

How the values were obtained:
[1] = biological target: human endothelial constitutive NOS (eNOS) (Homo sapiens, UniProt P29474); test: eNOS (Human) enzyme assay, radiometric conversion of [3H]L-arginine to [3H]L-citrulline; type: biochemical; conditions: recombinant human enzyme, 37° C., 45 min
Procedure: (§1) Recombinant human inducible NOS (iNOS), human endothelial constitutive NOS (eNOS) or human neuronal constitutive NOS(nNOS) were produced in Baculovirus-infected Sf9 cells (ALEXIS). In a radiometric method, NO synthase activity was determined by measuring the conversion of [^3H]L-arginine to [^3H]L-citrulline. To measure iNOS, 10 μL of enzyme was added to 100 μL of 100 mM HEPES, pH=7,4, containing 1 mM CaCl2, 1 mM EDTA, 1 mM dithiotheitol, 1 μM FMN, 1 μM FAD, 10 μM tetrahydrobiopterin, 120 μM NADPH, and 100 nM CaM. To measure eNOS or nNOS, 10 μL of enzyme was added to 100 μL of 40 mM HEPES, pH=7.4, containing 2.4 mM CaCl2, 1 mM MgCl2, 1 mg/mL BSA, 1 mM EDTA, 1 mM dithiothreitol, 1 μM FMN, 1 μM FAD, 10 μM tetrahydrobiopterin, 1 mM NADPH, and 1.2 μM CaM.
(§2) To measure enzyme inhibition, a 15 μL solution of a test substance was added to the enzyme assay solution, followed by a pre-incubation time of 15 min at RT. The reaction was initiated by addition of 20 μL L-arginine containing 0.25 μCi of [^3H]arginine/mL and 24 μM L-arginine. The total volume of the reaction mixture was 150 μL in every well. The reactions were carried out at 37° C. for 45 min. The reaction was stopped by adding 20 μL of ice-cold buffer containing 100 mM HEPES, 3 mM EGTA, 3 mM EDTA, pH=5.5. [^3H]L-citrulline was separated by DOWEX (ion-exchange resin DOWEX 50 W X 8-400, SIGMA) and the DOWEX was removed by spinning at 12,000 g for 10 min in the centrifuge. An 70 μL aliquot of the supernatant was added to 100 μL of scintillation fluid and the samples were counted in a liquid scintillation counter (1450 Microbeta Jet, Wallac). […] All assays were performed at least in duplicate.

[2] = biological target: human inducible NOS (iNOS) (Homo sapiens, UniProt P35228); test: iNOS (Human) enzyme assay, radiometric conversion of [3H]L-arginine to [3H]L-citrulline; type: biochemical; conditions: recombinant human enzyme, 37° C., 45 min
Procedure: as §1, §2

[3] = biological target: human neuronal constitutive NOS (nNOS) (Homo sapiens, UniProt P29475); test: nNOS (Human) enzyme assay, radiometric conversion of [3H]L-arginine to [3H]L-citrulline; type: biochemical; conditions: for Ratio e/n: human eNOS / human nNOS
Procedure: To measure enzyme inhibition, a 15 μL solution of a test substance was added to the enzyme assay solution, followed by a pre-incubation time of 15 min at RT. […] The total volume of the reaction mixture was 150 μL in every well. The reactions were carried out at 37° C. for 45 min. The reaction was stopped by adding 20 μL of ice-cold buffer containing 100 mM HEPES, 3 mM EGTA, 3 mM EDTA, pH=5.5. [^3H]L-citrulline was separated by DOWEX (ion-exchange resin DOWEX 50 W X 8-400, SIGMA) and the DOWEX was removed by spinning at 12,000 g for 10 min in the centrifuge. […] All assays were performed at least in duplicate. Standard deviations were 10% or less.

[4] = test system: rats after L5/L6 spinal nerve ligation; test: Chung Spinal Nerve Ligation (SNL) model of neuropathic pain, thermal hyperalgesia; type: in vivo, rat; conditions: one dose 10 or 60 mg/kg i.p.
Procedure: The efficacy of compound 107 for the treatment of neuropathic pain was assessed using standard animal models predictive of anti-hyperalgesic and anti-allodynic activity induced by a variety of methods.
The experimental designs for the Chung Spinal Nerve Ligation SNL Model assay for neuropathic pain are depicted in FIG. 1. Nerve ligation injury was performed according to the method described by Kim and Chung (Kim and Chung, Pain 50:355-363, 1992). This technique produces signs of neuropathic dysesthesias, including tactile allodynia, thermal hyperalgesia, and guarding of the affected paw. Rats were anesthetized with halothane and the vertebrae over the L4 to S2 region were exposed. The L5 and L6 spinal nerves were exposed, carefully isolated, and tightly ligated with 4-0 silk suture distal to the DRG. After ensuring homeostatic stability, the wounds were sutured, and the animals allowed to recover in individual cages. Sham-operated rats were prepared in an identical fashion except that the L5/L6 spinal nerves were not ligated. […] After a period of recovery following the surgical intervention, rats show enhanced sensitivity to painful and normally non-painful stimuli.

[5] = test system: cardiogenic shock patients; conditions: randomized trial of 30 patients; reduced from 67%; cited from earlier work
[6] = test system: migraine patients; conditions: open pilot study; cited from earlier work
[7] = test system: migraine patients; conditions: single i.v. administration; cited from earlier work
[8] = test system: patients with persistent shock; conditions: up to 30 days, 11 patients with persistent shock; cited from earlier work
[9] = recombinant human enzyme, 37° C., 45 min, read-out: Human nNOS

Sequence of human neuronal constitutive NOS (nNOS) (P29475 whole entry): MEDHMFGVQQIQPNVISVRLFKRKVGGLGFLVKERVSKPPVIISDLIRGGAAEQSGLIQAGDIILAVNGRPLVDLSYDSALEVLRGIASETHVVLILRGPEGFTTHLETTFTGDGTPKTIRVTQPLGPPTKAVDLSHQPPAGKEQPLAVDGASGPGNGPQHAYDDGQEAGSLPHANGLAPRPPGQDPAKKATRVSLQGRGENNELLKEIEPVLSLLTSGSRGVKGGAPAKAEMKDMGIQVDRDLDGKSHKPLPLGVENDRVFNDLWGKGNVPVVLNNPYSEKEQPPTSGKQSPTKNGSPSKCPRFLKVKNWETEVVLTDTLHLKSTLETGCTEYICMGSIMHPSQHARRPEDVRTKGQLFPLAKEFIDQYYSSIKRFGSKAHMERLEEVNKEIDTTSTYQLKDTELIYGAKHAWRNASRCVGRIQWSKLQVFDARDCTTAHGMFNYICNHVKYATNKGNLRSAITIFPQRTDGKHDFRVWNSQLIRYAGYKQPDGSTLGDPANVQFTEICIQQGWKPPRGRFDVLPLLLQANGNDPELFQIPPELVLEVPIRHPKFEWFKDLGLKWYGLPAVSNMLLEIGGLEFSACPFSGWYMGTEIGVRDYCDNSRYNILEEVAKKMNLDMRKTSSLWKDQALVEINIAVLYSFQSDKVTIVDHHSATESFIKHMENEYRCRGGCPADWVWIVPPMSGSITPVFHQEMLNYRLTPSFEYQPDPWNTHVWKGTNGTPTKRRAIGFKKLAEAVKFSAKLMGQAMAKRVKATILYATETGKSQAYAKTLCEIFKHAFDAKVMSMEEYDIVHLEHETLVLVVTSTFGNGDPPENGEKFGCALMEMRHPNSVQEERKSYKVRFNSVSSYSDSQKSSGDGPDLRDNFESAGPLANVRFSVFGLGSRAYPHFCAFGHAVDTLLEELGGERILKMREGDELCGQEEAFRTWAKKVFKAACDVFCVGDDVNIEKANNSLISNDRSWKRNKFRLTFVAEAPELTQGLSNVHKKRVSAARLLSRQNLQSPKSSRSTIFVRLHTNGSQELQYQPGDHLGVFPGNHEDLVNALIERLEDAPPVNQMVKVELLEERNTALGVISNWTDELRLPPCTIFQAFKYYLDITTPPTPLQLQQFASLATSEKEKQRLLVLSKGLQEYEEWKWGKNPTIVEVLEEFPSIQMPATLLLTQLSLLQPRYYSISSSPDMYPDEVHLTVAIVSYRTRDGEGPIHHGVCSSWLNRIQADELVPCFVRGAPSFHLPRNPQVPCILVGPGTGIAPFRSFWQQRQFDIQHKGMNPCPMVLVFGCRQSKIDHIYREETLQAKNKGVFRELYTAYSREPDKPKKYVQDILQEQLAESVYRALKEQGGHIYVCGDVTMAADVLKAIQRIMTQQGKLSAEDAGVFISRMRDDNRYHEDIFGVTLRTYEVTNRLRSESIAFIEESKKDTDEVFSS

Compound | IC50 ([1]; read-out: Human eNOS) | IC50 [2] | Ratio e/n [3] | IC50 [3, 9] | also measured
CN1CCCC(n2ccc3cc(NC(=N)c4cccs4)ccc32)CC1 (stereo not shown) [Compound 58, N-(1-(1-methylazepan-4-yl)-1H-indol-5-yl)thiophene-2-carboximidamide] | 11.5 µM | 7.6 µM | 93.49 | 120 nM | –
CN1CC=C(c2c[nH]c3cc(NC(=N)c4cccs4)ccc23)CC1 [Compound 107, N-[3-(1-methyl-1,2,3,6-tetrahydro-pyridin-4-yl)-1H-indol-6-yl]-thiophene-2-carboxamidine] | 29 µM | 12 µM | 26.36 | 1100 nM | antihyperalgesic effect (reversal of thermal hyperalgesia) [4]: clear antihyperalgesic effect
N=C(Nc1ccc2c(ccn2C2CN3CCC2CC3)c1)c1cccs1 (stereo not shown) [Compound 71, N-(1-(Quinuclidin-3-yl)-1H-indol-5-yl)thiophene-2-carboximidamide] | 12.1 µM | 29 µM | 32.79 | 360 nM | –
N=C(Nc1ccc2c(C3CN4CCC3CC4)c[nH]c2c1)c1cccs1 (stereo not shown) [Compound 112, N-(3-(quinuclidin-3-yl)-1H-indol-6-yl)thiophene-2-carboximidamide] | 31.4 µM | 0.4 µM | 27.78 | – | IC50 [3]: 1130 nM
CCNC1CCC(c2c[nH]c3cc(NC(=N)c4cccs4)ccc23)CC1 (stereo not shown) [Compound 129] | 14.9 µM | 4.2 µM | 57.08 | 260 nM | –
COC(=O)[C@@H](N)CCCNC(=N)N[N+](=O)[O-] [L-NAME] | – | – | – | – | patient mortality [5]: 27%
CN1CCCC1CCn1c(-c2ccc([N+](=O)[O-])cc2)cc2cc(NC(=N)c3cccs3)ccc21 (stereo not shown) [Compound 21, N-(1-(2-(1-methylpyrrolidin-2-yl)ethyl)-2-(4-nitrophenyl)-1H-indol-5-yl)thiophene-2-carboximidamide] | 13.2 µM | 52 µM | – | 1280 nM | –
CCNC1CC=C(c2c[nH]c3cc(NC(=N)c4cccs4)ccc23)CC1 (stereo not shown) [Compound 132, N-(3-(4-(Ethylamino)cyclohex-1-enyl)-1H-indol-6-yl)thiophene-2-carboximidamide] | 17.4 µM | 1.93 µM | 23.83 | 730 nM | –
C/C1=C2/[N-][C@H]([C@H](CC(N)=O)[C@@]2(C)CCC(=O)NC[C@@H](C)OP(=O)([O-])O[C@H]2[C@@H](O)[C@@H](n3cnc4cc(C)c(C)cc43)O[C@@H]2CO)[C@]2(C)N=C(/C(C)=C3N=C(/C=C4N=C1[C@@H](CCC(N)=O)C\4(C)C)[C@@H](CCC(N)=O)[C@]\3(C)CC(N)=O)[C@@H](CCC(N)=O)[C@]2(C)CC(N)=O.[Co+3].[OH-] [hydroxycobalamin] | – | – | – | – | patients with a 50% reduction in the frequency of migraine attack [6]: 53%
CN1C2CCC1CC(n1ccc3cc(NC(=N)c4cccs4)ccc31)C2 (stereo not shown) [Compound 86, N-(1-(8-methyl-8-azabicyclo[3.2.1]octan-3-yl)-1H-indol-5-yl)thiophene-2-carboximidamide] | 18.9 µM | 11 µM | 24.70 | 760 nM | –
CN1CCCC1CCn1c(Cc2ccc(OC(F)(F)F)cc2)cc2cc(NC(=N)c3cccs3)ccc21 (stereo not shown) [Compound 14, N-(1-(2-(1-methylpyrrolidin-2-yl)ethyl)-2-(4-(trifluoromethoxy)benzyl)-1H-indol-5-yl)thiophene-2-carboximidamide] | 1.52 µM | 93 µM | 4.90 | 310 nM | –
CCN(CC)CCn1c(Cc2ccc(OC(F)(F)F)cc2)cc2cc(NC(=N)c3cccs3)ccc21 [Compound 11, N-(1-(2-(Diethylamino)ethyl)-2-(4-(trifluoromethoxy)benzyl)-1H-indol-5-yl)thiophene-2-carboximidamide] | – | 17 µM | 5.62 | 800 nM | IC50 ([1]; Human eNOS (μM)): 4.5 µM
CN=C(N)NCCC[C@H](N)C(=O)O.Cl [L-NMMA, L-N^G methylarginine hydrochloride] | – | – | – | – | response rate [7]: 67%; survival rate [8]: 72%
CN1CCCC1CCn1ccc2cc(NC(=N)N[N+](=O)[O-])ccc21 (stereo not shown) [Compound 59, 1-(1-(2-(1-methylpyrrolidin-2-yl)ethyl)-1H-indol-5-yl)-3-nitroguanidine] | 8.65 µM | – | 6.00 | 1440 nM | Human iNOS (μM) [2]: Not Active
CN1CCC(c2c[nH]c3cc(NC(=N)c4cccs4)ccc23)CC1 [Compound 108, N-[3-(1-methyl-piperidin-4-yl)-1H-indol-6-yl]-thiophene-2-carboxamidine] | 17 µM | 9.3 µM | 23.94 | 710 nM | –
